Data taken from ChEMBL document CHEMBL1201862, “PubChem BioAssay data set” (2004).
Counter-ions that a name gives are not always drawn.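 Protocol summary: plate cells (96-well), add compound at 5 concentrations, incubate 48 h, interpolate endpoints linearly. GI50: concentration for 50% inhibition of growth.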 Calls of active or inactive are those of the source. Cut-off read from the data, not from the text of the source: active = GI50 up to about 1.1 µM and inactive = higher.

Columns and labels:
Test in all cases: NCI-60 cell line screen, 48 h
A549 = test system: A549
ACHN = test system: ACHN
COLO 205 = test system: COLO 205
EKVX = test system: EKVX
HCT-15 = test system: HCT-15
KM12 = test system: KM12
MOLT-4 = test system: MOLT-4
NCI-H226 = test system: NCI-H226
NCI-H23 = test system: NCI-H23
SK-MEL-28 = test system: SK-MEL-28
SK-OV-3 = test system: SK-OV-3
SNB-19 = test system: SNB-19
SW-620 = test system: SW-620
TK-10 = test system: TK-10
CAKI-1 = test system: CAKI-1
HCT-116 = test system: HCT-116
OVCAR-4 = test system: OVCAR-4
UACC-62 = test system: UACC-62

SMILES	GI50 (A549)	GI50 (ACHN)	GI50 (COLO 205)	GI50 (EKVX)	GI50 (HCT-15)	GI50 (KM12)	GI50 (MOLT-4)	GI50 (NCI-H226)	GI50 (NCI-H23)	GI50 (SK-MEL-28)	GI50 (SK-OV-3)	GI50 (SNB-19)	GI50 (SW-620)	GI50 (TK-10)	GI50 (CAKI-1)	GI50 (HCT-116)	GI50 (OVCAR-4)	GI50 (UACC-62)
CCOC(=O)C1=C(C)CC2C(=O)OC(=O)C2C1(C)C (configuration not stated)	> 100 µM (inactive)	> 100 µM (inactive)	> 100 µM (inactive)	> 100 µM (inactive)	> 100 µM	> 100 µM (inactive)	> 100 µM (inactive)	> 100 µM (inactive)	> 100 µM (inactive)	> 100 µM (inactive)	> 100 µM (inactive)	> 100 µM (inactive)	> 100 µM (inactive)	> 100 µM (inactive)				
COc1ccc(C(C#N)NNC(=O)c2ccccc2O)cc1OC (configuration not stated)	0.377 µM (active)	0.384 µM (active)	35.6 µM (inactive)		0.893 µM	0.807 µM (active)	3.04 µM (inactive)	1.96 µM (inactive)	0.746 µM (active)	28.6 µM (inactive)	0.889 µM (active)		4.56 µM (inactive)	14.6 µM (inactive)	0.394 µM (active)	0.401 µM (active)	1.7 µM (inactive)	0.31 µM (active)
CC(=O)O[C@H]1CCC2[C@@H]3CCC4Nc5[nH]ncc5C[C@]4(C)C3CC[C@@]21C (some centres not stated)	> 100 µM (inactive)	> 100 µM (inactive)	37.2 µM (inactive)	35.1 µM (inactive)	44.6 µM	64.1 µM (inactive)	22.9 µM (inactive)	> 100 µM (inactive)	61.2 µM (inactive)		> 100 µM (inactive)	26.4 µM (inactive)	36.8 µM (inactive)	74.6 µM (inactive)	45.1 µM (inactive)	64.9 µM (inactive)	81.1 µM (inactive)	18.9 µM (inactive)
Cc1ccc(NC(=O)CCC/C(CC(=O)c2ccc(Br)cc2)=N/NC(=O)CC#N)cc1	> 100 µM (inactive)	> 100 µM (inactive)	> 100 µM (inactive)	> 100 µM (inactive)		> 100 µM (inactive)	> 100 µM (inactive)	> 100 µM (inactive)	> 100 µM (inactive)	> 100 µM (inactive)		> 100 µM (inactive)	> 100 µM (inactive)	> 100 µM (inactive)		> 100 µM (inactive)	> 100 µM (inactive)	> 100 µM (inactive)
COc1cc2c(cc1OC)C(C(CO)CO)N(CC(O)CCl)CC2 (configuration not stated)	> 100 µM (inactive)	> 100 µM (inactive)	> 100 µM (inactive)	> 100 µM (inactive)	> 100 µM	> 100 µM (inactive)	> 100 µM (inactive)	> 100 µM (inactive)	> 100 µM (inactive)	> 100 µM (inactive)	> 100 µM (inactive)	> 100 µM (inactive)	> 100 µM (inactive)	> 100 µM (inactive)	> 100 µM (inactive)		> 100 µM (inactive)	> 100 µM (inactive)
CC1CC2(CCC1OCc1ccccc1)OCCO2 (configuration not stated)	> 100 µM (inactive)		> 100 µM (inactive)	> 100 µM (inactive)	> 100 µM	> 100 µM (inactive)	> 100 µM (inactive)		> 100 µM (inactive)		> 100 µM (inactive)	> 100 µM (inactive)	> 100 µM (inactive)	> 100 µM (inactive)	> 100 µM (inactive)	> 100 µM (inactive)	> 100 µM (inactive)	> 100 µM (inactive)
COc1ccc(CN2C(=O)[C@@H]3Cc4c(OC)c(C)c(OC)c(OC)c4[C@H](/C2=C\c2cc(OC)c(OC)c(C)c2OC)N3C(=O)OC(C)C)cc1	58.9 µM (inactive)	> 100 µM (inactive)	12.4 µM (inactive)	12.2 µM (inactive)		> 100 µM (inactive)	6.97 µM (inactive)	5.57 µM (inactive)	66.4 µM (inactive)	> 100 µM (inactive)	32.5 µM (inactive)	> 100 µM (inactive)	94.8 µM (inactive)	78 µM (inactive)	30.3 µM (inactive)	9.66 µM (inactive)	50.7 µM (inactive)	48.6 µM (inactive)
CCOC(=O)N1CCN(P(=O)(Nc2ccc3[nH]c(NC(=O)OC)nc3c2)Oc2ccccc2)CC1 (configuration not stated)	> 100 µM (inactive)	> 100 µM (inactive)	> 100 µM (inactive)		> 100 µM	> 100 µM (inactive)	> 100 µM (inactive)	> 100 µM (inactive)	> 100 µM (inactive)	> 100 µM (inactive)	> 100 µM (inactive)		> 100 µM (inactive)	> 100 µM (inactive)	> 100 µM (inactive)	> 100 µM (inactive)	> 100 µM (inactive)	51.1 µM (inactive)
N#C/C(=C1\N=NC(N)=C(c2ccc(Cl)cc2)C1=O)c1ccc(Cl)cc1	> 100 µM (inactive)	> 100 µM (inactive)	> 100 µM (inactive)	> 100 µM (inactive)		> 100 µM (inactive)	> 100 µM (inactive)	> 100 µM (inactive)	> 100 µM (inactive)	> 100 µM (inactive)	> 100 µM (inactive)	> 100 µM (inactive)	> 100 µM (inactive)	> 100 µM (inactive)	> 100 µM (inactive)	> 100 µM (inactive)	> 100 µM (inactive)	> 100 µM (inactive)
C[n+]1cc(C(O)c2ccc3c(c2)OCO3)c2ccccc2c1 (configuration not stated)	33.3 µM (inactive)	29.1 µM (inactive)	33.2 µM (inactive)	27 µM (inactive)	33.5 µM	38.3 µM (inactive)	17.9 µM (inactive)	20.6 µM (inactive)			45.5 µM (inactive)	44.3 µM (inactive)	44.2 µM (inactive)	36.8 µM (inactive)	13.9 µM (inactive)	28.4 µM (inactive)		22.9 µM (inactive)
CCOC(=O)CC(C)C1(C=O)CCCCC1=O (configuration not stated)	> 100 µM (inactive)	> 100 µM (inactive)	29.3 µM (inactive)	> 100 µM (inactive)	38 µM	> 100 µM (inactive)	> 100 µM (inactive)	> 100 µM (inactive)		> 100 µM (inactive)	> 100 µM (inactive)	> 100 µM (inactive)		> 100 µM (inactive)	> 100 µM (inactive)	> 100 µM (inactive)	79.8 µM (inactive)	> 100 µM (inactive)
COC(=O)C1C(=O)NC2(C)CC1c1ccccc1O2 (configuration not stated)	> 100 µM (inactive)	> 100 µM (inactive)			> 100 µM	> 100 µM (inactive)	> 100 µM (inactive)	> 100 µM (inactive)	> 100 µM (inactive)	> 100 µM (inactive)	> 100 µM (inactive)	> 100 µM (inactive)	> 100 µM (inactive)	> 100 µM (inactive)	> 100 µM (inactive)	> 100 µM (inactive)	> 100 µM (inactive)	> 100 µM (inactive)
CC(NC(C)(C)C)C(=O)c1cccc(Cl)c1 (configuration not stated) [BUPROPION HYDROCHLORIDE]	> 100 µM (inactive)	> 100 µM (inactive)	> 100 µM (inactive)	> 100 µM (inactive)		> 100 µM (inactive)	> 100 µM (inactive)		> 100 µM (inactive)	> 100 µM (inactive)	> 100 µM (inactive)		> 100 µM (inactive)	> 100 µM (inactive)	> 100 µM (inactive)	> 100 µM (inactive)	> 100 µM (inactive)	> 100 µM (inactive)
Cc1nc2c(n1CCO)C(=O)c1ccccc1C2=O	29.4 µM (inactive)	25.1 µM (inactive)	18.9 µM (inactive)	55 µM (inactive)	31.5 µM	37.7 µM (inactive)	28.9 µM (inactive)	> 100 µM (inactive)	15 µM (inactive)	93.3 µM (inactive)	> 100 µM (inactive)	43 µM (inactive)	32.8 µM (inactive)	> 100 µM (inactive)		18.9 µM (inactive)	26.2 µM (inactive)	16.5 µM (inactive)
CC/C(C)=C1\CCC(CN(C)C)C1=O (configuration not stated)	22.9 µM (inactive)	18.9 µM (inactive)		21.9 µM (inactive)	15.8 µM	15 µM (inactive)	26.7 µM (inactive)	> 100 µM (inactive)	21.2 µM (inactive)	22.9 µM (inactive)		> 100 µM (inactive)	22.9 µM (inactive)	17.3 µM (inactive)	1.91 µM (inactive)	17.8 µM (inactive)	17.6 µM (inactive)	33.3 µM (inactive)
CC(=O)OCC(OC(C)=O)C(OC(C)=O)C(OC(C)=O)C(=O)CNn1c(-c2ccccc2Cl)nc2ccccc2c1=O (configuration not stated)	> 100 µM (inactive)	> 100 µM (inactive)	> 100 µM (inactive)	> 100 µM (inactive)	> 100 µM	> 100 µM (inactive)	> 100 µM (inactive)	> 100 µM (inactive)	> 100 µM (inactive)	> 100 µM (inactive)	> 100 µM (inactive)	> 100 µM (inactive)	> 100 µM (inactive)		> 100 µM (inactive)	> 100 µM (inactive)	> 100 µM (inactive)	> 100 µM (inactive)
CSc1nc(Cl)c(Br)c(Sc2nc(N)nc3nc[nH]c23)n1	19.5 µM (inactive)	15.3 µM (inactive)	15.7 µM (inactive)		5.66 µM	5.18 µM (inactive)	4.2 µM (inactive)	10.5 µM (inactive)	10.4 µM (inactive)	11 µM (inactive)		16.6 µM (inactive)	7.43 µM (inactive)	6.79 µM (inactive)	3.42 µM (inactive)	2.84 µM (inactive)	11 µM (inactive)	3.52 µM (inactive)
